# Measurements from patent US12329883B2, “Soft tissue repair implants comprising hydroxybutyrate” (Davol Inc., priority 2017, dated 2025).
# System: cathelicidin LL-37 expression
# Assay: cathelicidin LL-37 immunolabeling of primary macrophages exposed for 18 hours to samples
# Assay type: cell-based, C57bl/6 mice
# Conditions: primary bone marrow-derived macrophages, 18 hours exposure
# Method: Primary macrophages were differentiated from mononuclear cells harvested from the bone marrow of C57bl/6 mice. A solution of these primary macrophages was divided into 18 wells, each of which was exposed for 18 hours to one of samples nos. 1-18; i.e., a composition comprising either a species of interest dissolved in cell growth media or a solubilized biological scaffold dissolved in cell growth media. […]
# After immunolabeling preparation, images were taken of the counterstained macrophages for three 20× fields for each well using a Zeus live-cell microscope. […] The light exposure time that produced the best images was determined, and the remaining samples were imaged at this light exposure time.
# After immunolabeling, each macrophage nucleus appeared blue in the immunolabeling images and cathelicidin LL-37 appeared green. The percentages of macrophages expressing cathelicidin LL-37 shown in FIG. 7 were calculated by dividing the number of cathelicidin LL-37-expressing cells in each image (determined by the number of blue nuclei located in close proximity to green cathelicidin LL-37) by the number of cells in each image (determined by the number of blue nuclei in each image). The identification of cathelicidin LL-37 and cell nuclei in the images was determined with the aid of CellProfiler, a […] software analyzer (available at http://www.cellprofiler.org). […]
compound,measurement,setting,value
O=C(O)CCCO [4-hydroxybutyrate],"cathelicidin LL-37 expression (percent of cathelicidin LL-37 expressing cells, FIG. 6 and FIG. 7)","Example 1, 4HB 12 mM",strongly promoted
same,"cathelicidin LL-37 expression (percent of cathelicidin LL-37 expressing cells, FIG. 8 and FIGS. 9-16)","Example 2, concentration series of Table 2",effectively induce
